Measurements from patent US20210085711A1 (Japan Tobacco Inc., priority 2017, published 2021).
Where two headings read alike, the source gives them in different places.

What was measured:
[1] = tested on: patients with hypermenorrhea and/or patients with hypermenorrhea-associated gynecologic diseases (iron-deficiency anemia patients); conditions: for Hb change, End of administration, Mean: change from baseline; for Williams test, Mean of change amount from the baseline at the end of administration, JTT-751-placebo: difference to placebo
Experimental: (§1) This test was a three-stage safety and efficacy clinical trial at multi-facilities. The first stage was a pre-observation period (Day −40 to Day −1), the second stage was an administration period (Day 1 to Day 48) (efficacy and safety evaluation period), and the third stage was a post-observation period (Day 49 to Day 63) (efficacy and safety evaluation period). The safety evaluation and efficacy evaluation were performed by multi-facility collaboration, placebo control, random allocation, double-blind trial, and parallel group comparison test.
(§2) The administration period of the trial drug is seven weeks which starts from the next day of the Week 0 visit to the day before the Week 7 visit, provided that the trial drug is not taken on the scheduled Week 3 visit.
Amount of change in blood hemoglobin value (Hb) from Week 0 at the end of administration
The mean of each administration group is used as a placebo group (μ1), a 250 mg group (μ2), a 500 mg group (μ3), a 1000 mg group (μ4), a 1500 mg group (μ5).
(§3) The blood hemoglobin value (Hb), the serum iron level, the serum ferritin value, the total iron-binding capacity (TIBC) and the transferrin saturation rate (TSAT), and the mean corpuscular volume (MCV) were each examined at the observation start date, Week 0, Week 3, Week 7, the end of administration and the consultation at nine weeks after Week 0; the hepcidin concentration (Hepcidin 25) and the serum soluble transferrin receptor concentration (sTfR) were each examined on Week 0, Week 3 and Week 7 and at the end of administration; and the C-terminal FGF23 value (cFGF23) and the intact FGF23 value (iFGF23) were each examined on Week 0 and Week 7 and at the end of administration.

[2] = tested on: patients with hypermenorrhea and/or patients with hypermenorrhea-associated gynecologic diseases (iron-deficiency anemia patients); experiment: Phase II clinical trial of JTT-751: total iron-binding capacity (TIBC); assay type: in vivo, human
Experimental: as §1
(1) Japanese patients who are 20 or more and less than 65 years old at the time of agreement and can visit an outpatient clinic (2) Patients who have an Hb value (measured using HemoCue® Hb 201 DM analyzer in the institute of clinical practice) of 7.0 g/dL or more and less than 11.0 g/dL on both the observation start date and Week 0, and the difference between the two days is 1.0 g/dL or less (3) Patients with a TIBC of 360 μg/dL or more or a serum ferritin value of less than 12 ng/mL on the observation start date
as §2
(2) Subsidiary evaluation items 1) Erythrocyte-related examination values and amount of change from Week 0 at each observation date 2) Iron-related test values and amount of change from Week 0 at each observation date 3) Achievement rate of target Hb value (female; 12.0 g/dL or more, male; 13.0 g/dL or more) at each observation date 4) Achievement rate of 1.0 g/dL or more and achievement rate of 2.0 g/dL or more in Hb value improvement from Week 0 at each observation date 5) Average daily change of Hb value from Week 0 to each observation date
as §3

[3] = 250 mg/day, 9 weeks after Week 0
[4] = 250 mg/day, End of administration
[5] = 500 mg/day, 9 weeks after Week 0
[6] = 500 mg/day, End of administration
[7] = 1000 mg/day, 9 weeks after Week 0
[8] = 1000 mg/day, End of administration
[9] = 1500 mg/day, 9 weeks after Week 0
[10] = 1500 mg/day, End of administration

Ferric citrate [JTT-751]
Hb measured value, Base line, Mean ([1]; 250 mg/day): 9.47 g/dL | Hb measured value, End of administration, Mean ([1]; 250 mg/day): 11.72 g/dL | Williams test, Mean of change amount from the baseline at the end of administration, Mean ([1]; 250 mg/day): 2.25 g/dL | Hb, Median [1, 3]: 11.60 g/dL | Hb, Median [1, 4]: 11.80 g/dL | Hb, Median ([1]; 250 mg/day, Observation start date (before administration)): 9.55 g/dL | Hb, Median ([1]; 250 mg/day, Week 0 (baseline)): 9.80 g/dL | Hb, Median ([1]; 250 mg/day, Week 3): 10.75 g/dL | Hb, Median ([1]; 250 mg/day, Week 7): 11.80 g/dL | Hb change, End of administration, Mean ([1]; 250 mg/day): 2.25 g/dL | Williams test, Mean of change amount from the baseline at the end of administration, JTT-751-placebo ([1]; 250 mg/day): 2.50 g/dL | Hb measured value, Base line, Mean ([1]; 500 mg/day): 8.98 g/dL | Hb measured value, End of administration, Mean ([1]; 500 mg/day): 11.71 g/dL | Williams test, Mean of change amount from the baseline at the end of administration, Mean ([1]; 500 mg/day): 2.73 g/dL | Hb, Median [1, 5]: 11.70 g/dL | Hb, Median [1, 6]: 11.90 g/dL | Hb, Median ([1]; 500 mg/day, Observation start date (before administration)): 9.30 g/dL | Hb, Median ([1]; 500 mg/day, Week 0 (baseline)): 8.95 g/dL | Hb, Median ([1]; 500 mg/day, Week 3): 10.10 g/dL | Hb, Median ([1]; 500 mg/day, Week 7): 11.90 g/dL | Hb change, End of administration, Mean ([1]; 500 mg/day): 2.73 g/dL | Williams test, Mean of change amount from the baseline at the end of administration, JTT-751-placebo ([1]; 500 mg/day): 2.98 g/dL | Hb measured value, Base line, Mean ([1]; 1000 mg/day): 9.66 g/dL | Hb measured value, End of administration, Mean ([1]; 1000 mg/day): 12.72 g/dL | Williams test, Mean of change amount from the baseline at the end of administration, Mean ([1]; 1000 mg/day): 3.05 g/dL | Hb, Median [1, 7]: 12.70 g/dL | Hb, Median [1, 8]: 12.90 g/dL | Hb, Median ([1]; 1000 mg/day, Observation start date (before administration)): 9.90 g/dL | Hb, Median ([1]; 1000 mg/day, Week 0 (baseline)): 9.80 g/dL | Hb, Median ([1]; 1000 mg/day, Week 3): 11.80 g/dL | Hb, Median ([1]; 1000 mg/day, Week 7): 12.90 g/dL | Hb change, End of administration, Mean ([1]; 1000 mg/day): 3.05 g/dL | Williams test, Mean of change amount from the baseline at the end of administration, JTT-751-placebo ([1]; 1000 mg/day): 3.30 g/dL | Hb measured value, Base line, Mean ([1]; 1500 mg/day): 9.38 g/dL | Hb measured value, End of administration, Mean ([1]; 1500 mg/day): 12.75 g/dL | Williams test, Mean of change amount from the baseline at the end of administration, Mean ([1]; 1500 mg/day): 3.37 g/dL | Hb, Median [1, 9]: 12.70 g/dL | Hb, Median [1, 10]: 13.00 g/dL | Hb, Median ([1]; 1500 mg/day, Observation start date (before administration)): 9.40 g/dL | Hb, Median ([1]; 1500 mg/day, Week 0 (baseline)): 9.40 g/dL | Hb, Median ([1]; 1500 mg/day, Week 3): 11.60 g/dL | Hb, Median ([1]; 1500 mg/day, Week 7): 13.00 g/dL | Hb change, End of administration, Mean ([1]; 1500 mg/day): 3.37 g/dL | Williams test, Mean of change amount from the baseline at the end of administration, JTT-751-placebo ([1]; 1500 mg/day): 3.62 g/dL | blood hemoglobin value, dose dependence ([1]; 250-1500 mg/day): increases along with the dose increase | blood hemoglobin value, time-dependent change ([1]; Week 0, Week 3 and Week 7): increased along with the continuous administration | blood hemoglobin value after completion of administration ([1]; nine weeks after Week 0 (two weeks after completion of administration)): did not decrease | blood hemoglobin value compared to the placebo administration group ([1]; regardless of the dose amount (250-1500 mg/day), end of administration): significantly increase | TIBC, profile from the baseline (value at Week 0), Mean [2, 3]: -42.8 µg/dL | TIBC, profile from the baseline (value at Week 0), Median [2, 3]: -39.0 µg/dL | TIBC, profile from the baseline (value at Week 0), Mean [2, 4]: -60.1 µg/dL | TIBC, profile from the baseline (value at Week 0), Median [2, 4]: -62.0 µg/dL | TIBC, profile from the baseline (value at Week 0), Mean ([2]; 250 mg/day, Week 3): -28.3 µg/dL | TIBC, profile from the baseline (value at Week 0), Median ([2]; 250 mg/day, Week 3): -24.0 µg/dL | TIBC, profile from the baseline (value at Week 0), Mean ([2]; 250 mg/day, Week 7): -60.1 µg/dL | TIBC, profile from the baseline (value at Week 0), Median ([2]; 250 mg/day, Week 7): -62.0 µg/dL | TIBC, profile from the baseline (value at Week 0), Mean [2, 5]: -49.6 µg/dL | TIBC, profile from the baseline (value at Week 0), Median [2, 5]: -49.0 µg/dL | TIBC, profile from the baseline (value at Week 0), Mean [2, 6]: -61.7 µg/dL | TIBC, profile from the baseline (value at Week 0), Median [2, 6]: -49.5 µg/dL | TIBC, profile from the baseline (value at Week 0), Mean ([2]; 500 mg/day, Week 3): -30.9 µg/dL | TIBC, profile from the baseline (value at Week 0), Median ([2]; 500 mg/day, Week 3): -28.5 µg/dL | TIBC, profile from the baseline (value at Week 0), Mean ([2]; 500 mg/day, Week 7): -61.7 µg/dL | TIBC, profile from the baseline (value at Week 0), Median ([2]; 500 mg/day, Week 7): -49.5 µg/dL | TIBC, profile from the baseline (value at Week 0), Mean [2, 7]: -68.7 µg/dL | TIBC, profile from the baseline (value at Week 0), Median [2, 7]: -75.0 µg/dL | TIBC, profile from the baseline (value at Week 0), Mean [2, 8]: -80.4 µg/dL | TIBC, profile from the baseline (value at Week 0), Median [2, 8]: -70.0 µg/dL | TIBC, profile from the baseline (value at Week 0), Mean ([2]; 1000 mg/day, Week 3): -54.1 µg/dL | TIBC, profile from the baseline (value at Week 0), Median ([2]; 1000 mg/day, Week 3): -54.0 µg/dL | TIBC, profile from the baseline (value at Week 0), Mean ([2]; 1000 mg/day, Week 7): -80.4 µg/dL | TIBC, profile from the baseline (value at Week 0), Median ([2]; 1000 mg/day, Week 7): -70.0 µg/dL | TIBC, profile from the baseline (value at Week 0), Mean [2, 9]: -63.0 µg/dL | TIBC, profile from the baseline (value at Week 0), Median [2, 9]: -68.5 µg/dL | TIBC, profile from the baseline (value at Week 0), Mean [2, 10]: -79.7 µg/dL | TIBC, profile from the baseline (value at Week 0), Median [2, 10]: -84.0 µg/dL | TIBC, profile from the baseline (value at Week 0), Mean ([2]; 1500 mg/day, Week 3): -60.7 µg/dL | TIBC, profile from the baseline (value at Week 0), Median ([2]; 1500 mg/day, Week 3): -70.0 µg/dL | TIBC, profile from the baseline (value at Week 0), Mean ([2]; 1500 mg/day, Week 7): -79.7 µg/dL | TIBC, profile from the baseline (value at Week 0), Median ([2]; 1500 mg/day, Week 7): -84.0 µg/dL | total iron-binding capacity (TIBC), time-dependent change ([2]; Week 0, Week 3 and Week 7): decreased along with the continuous administration
